The values below come from patent US20130225839A1, “PREPARATION METHOD OF FOSAMPRENAVIR DERIVATIVES AND RELEVANT INTERMEDIATE THEREOF” (ZHEJIANG JIUHOU PHARMA SCIENCE & TECHNOLOGY CO., LTD., priority 2010, published 2013).

Converted amounts (≈) assume the structure as drawn.

The conditions of data set [1]: cited from earlier work.
The nature of data set [2]: solubility in water or ethanol. It is filed as physicochemical.

With `CC(C)CN(C[C@@H](O)[C@H](Cc1ccccc1)NC(=O)O[C@H]1CCOC1)S(=O)(=O)c1ccc(N)cc1` [APV, amprenavir], the “solubility in water at 25° C.” value in data set [1] was 40 µg/mL (≈ 79.1 µM).

Regarding `CC(C)CN(C[C@@H](OP(=O)([O-])[O-])[C@H](Cc1ccccc1)NC(=O)O[C@H]1CCOC1)S(=O)(=O)c1ccc([N+](=O)[O-])cc1.[Na+].[Na+]` [sodium (3S)4etrahydrofuran-3-yl(1S,2R)-3-[(4-nitrophenyl)sulfonyl](isobutyl)amino-1-benzyl-2-(phosphonooxy)propyl-carbamate], in data set [2] (ethanol), the solubility in ethanol entry is recorded as “soluble”. Moreover, the solubility in water entry in data set [2] (water) was “soluble”.
